Data as given in PubChem BioAssay (NCI).
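96-well plates; 48 h exposure; 5 concentrations. Endpoints by linear interpolation between flanking doses. Not reached: highest tested concentration assigned. TGI marks complete inhibition of growth.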

Experiments:
Test in all cases: growth of human tumour cells (NCI), 48 h
A498 renal = test system: A498 renal
A549 NSCLC = test system: A549 NSCLC
ACHN renal = test system: ACHN renal
CAKI-1 renal = test system: CAKI-1 renal
CCRF-CEM leukemia = test system: CCRF-CEM leukemia
COLO 205 colon = test system: COLO 205 colon
DLD-1 colon = test system: DLD-1 colon
DMS 114 small cell lung = test system: DMS 114 small cell lung
DMS 273 small cell lung = test system: DMS 273 small cell lung
HCC-2998 colon = test system: HCC-2998 colon
HCT-116 colon = test system: HCT-116 colon
HCT-15 colon = test system: HCT-15 colon
HL-60(TB) leukemia = test system: HL-60(TB) leukemia
HOP-18 NSCLC = test system: HOP-18 NSCLC
HOP-92 NSCLC = test system: HOP-92 NSCLC
HT29 colon = test system: HT29 colon
KM12 colon = test system: KM12 colon
LOX IMVI melanoma = test system: LOX IMVI melanoma
LXFL 529 NSCLC = test system: LXFL 529 NSCLC
MALME-3M melanoma = test system: MALME-3M melanoma
MOLT-4 leukemia = test system: MOLT-4 leukemia
NCI-H226 lung = test system: NCI-H226 lung
NCI-H23 lung = test system: NCI-H23 lung
NCI-H460 lung = test system: NCI-H460 lung
NCI-H522 lung = test system: NCI-H522 lung
OVCAR-4 ovarian = test system: OVCAR-4 ovarian
OVCAR-5 ovarian = test system: OVCAR-5 ovarian
RPMI-8226 leukemia = test system: RPMI-8226 leukemia
RXF 393 renal = test system: RXF 393 renal
RXF-631 renal = test system: RXF-631 renal
SF-268 CNS = test system: SF-268 CNS
SF-295 CNS = test system: SF-295 CNS
SK-MEL-2 melanoma = test system: SK-MEL-2 melanoma
SK-MEL-28 melanoma = test system: SK-MEL-28 melanoma
SK-MEL-5 melanoma = test system: SK-MEL-5 melanoma
SK-OV-3 ovarian = test system: SK-OV-3 ovarian
SN12C renal = test system: SN12C renal
SNB-19 CNS = test system: SNB-19 CNS
SNB-75 CNS = test system: SNB-75 CNS
SNB-78 CNS = test system: SNB-78 CNS
SR leukemia = test system: SR leukemia
SW-620 colon = test system: SW-620 colon
TK-10 renal = test system: TK-10 renal
U251 CNS = test system: U251 CNS
UACC-257 melanoma = test system: UACC-257 melanoma
XF 498 CNS = test system: XF 498 CNS
EKVX NSCLC = test system: EKVX NSCLC
HOP-62 NSCLC = test system: HOP-62 NSCLC
IGROV1 ovarian = test system: IGROV1 ovarian
K-562 leukemia = test system: K-562 leukemia
KM20L2 colon = test system: KM20L2 colon
M14 melanoma = test system: M14 melanoma
M19-MEL melanoma = test system: M19-MEL melanoma
OVCAR-3 ovarian = test system: OVCAR-3 ovarian
OVCAR-8 ovarian = test system: OVCAR-8 ovarian
SF-539 CNS = test system: SF-539 CNS
UACC-62 melanoma = test system: UACC-62 melanoma
UO-31 renal = test system: UO-31 renal
786-0 renal = test system: 786-0 renal

## CN1NC(c2ccccc2)=C(C#N)C(=O)CC1c1ccc(F)cc1 (stereo not drawn)
A498 renal
  TGI: > 100 µM
A549 NSCLC
  TGI: > 100 µM
ACHN renal
  TGI: > 100 µM
CAKI-1 renal
  TGI: > 100 µM
CCRF-CEM leukemia
  TGI: > 100 µM
COLO 205 colon
  TGI: > 100 µM
DLD-1 colon
  TGI: > 100 µM
DMS 114 small cell lung
  TGI: > 100 µM
DMS 273 small cell lung
  TGI: > 100 µM
HCC-2998 colon
  TGI: > 100 µM
HCT-116 colon
  TGI: > 100 µM
HCT-15 colon
  TGI: > 100 µM
HL-60(TB) leukemia
  TGI: > 100 µM
HOP-18 NSCLC
  TGI: > 100 µM
HOP-92 NSCLC
  TGI: > 100 µM
HT29 colon
  TGI: > 100 µM
KM12 colon
  TGI: > 100 µM
LOX IMVI melanoma
  TGI: > 100 µM
LXFL 529 NSCLC
  TGI: > 100 µM
MALME-3M melanoma
  TGI: > 100 µM
MOLT-4 leukemia
  TGI: > 100 µM
NCI-H226 lung
  TGI: > 100 µM
NCI-H23 lung
  TGI: > 100 µM
NCI-H460 lung
  TGI: > 100 µM
NCI-H522 lung
  TGI: > 100 µM
OVCAR-4 ovarian
  TGI: > 100 µM
OVCAR-5 ovarian
  TGI: > 100 µM
RPMI-8226 leukemia
  TGI: > 100 µM
RXF 393 renal
  TGI: > 100 µM
RXF-631 renal
  TGI: > 100 µM
SF-268 CNS
  TGI: > 100 µM
SF-295 CNS
  TGI: > 100 µM
SK-MEL-2 melanoma
  TGI: > 100 µM
SK-MEL-28 melanoma
  TGI: > 100 µM
SK-MEL-5 melanoma
  TGI: > 100 µM
SK-OV-3 ovarian
  TGI: > 100 µM
SN12C renal
  TGI: > 100 µM
SNB-19 CNS
  TGI: > 100 µM
SNB-75 CNS
  TGI: > 100 µM
SNB-78 CNS
  TGI: > 100 µM
SR leukemia
  TGI: > 100 µM
SW-620 colon
  TGI: > 100 µM
TK-10 renal
  TGI: > 100 µM
U251 CNS
  TGI: > 100 µM
UACC-257 melanoma
  TGI: > 100 µM
XF 498 CNS
  TGI: > 100 µM

## COc1cccc(NC(=O)CC(=O)NN2C(=O)/C(=C/c3ccc(N(CCC#N)CCC#N)cc3)N=C2c2cc([N+](=O)[O-])ccc2Cl)c1
A549 NSCLC
  TGI: > 100 µM
ACHN renal
  TGI: > 100 µM
CAKI-1 renal
  TGI: > 100 µM
CCRF-CEM leukemia
  TGI: > 100 µM
COLO 205 colon
  TGI: > 100 µM
DLD-1 colon
  TGI: > 100 µM
DMS 114 small cell lung
  TGI: > 100 µM
DMS 273 small cell lung
  TGI: > 100 µM
EKVX NSCLC
  TGI: > 100 µM
HCC-2998 colon
  TGI: > 100 µM
HCT-116 colon
  TGI: > 100 µM
HCT-15 colon
  TGI: > 100 µM
HOP-62 NSCLC
  TGI: > 100 µM
HOP-92 NSCLC
  TGI: > 100 µM
IGROV1 ovarian
  TGI: > 100 µM
K-562 leukemia
  TGI: > 100 µM
KM12 colon
  TGI: > 100 µM
KM20L2 colon
  TGI: > 100 µM
LOX IMVI melanoma
  TGI: > 100 µM
LXFL 529 NSCLC
  TGI: > 100 µM
M14 melanoma
  TGI: > 100 µM
M19-MEL melanoma
  TGI: > 100 µM
MALME-3M melanoma
  TGI: > 100 µM
MOLT-4 leukemia
  TGI: > 100 µM
NCI-H226 lung
  TGI: 30.1 µM
NCI-H23 lung
  TGI: > 100 µM
NCI-H522 lung
  TGI: > 100 µM
OVCAR-3 ovarian
  TGI: > 100 µM
OVCAR-4 ovarian
  TGI: > 100 µM
OVCAR-5 ovarian
  TGI: 72.3 µM
OVCAR-8 ovarian
  TGI: > 100 µM
RPMI-8226 leukemia
  TGI: > 100 µM
RXF 393 renal
  TGI: > 100 µM
RXF-631 renal
  TGI: > 100 µM
SF-268 CNS
  TGI: > 100 µM
SF-295 CNS
  TGI: > 100 µM
SF-539 CNS
  TGI: > 100 µM
SK-MEL-2 melanoma
  TGI: > 100 µM
SK-MEL-28 melanoma
  TGI: > 100 µM
SK-MEL-5 melanoma
  TGI: > 100 µM
SK-OV-3 ovarian
  TGI: > 100 µM
SN12C renal
  TGI: > 100 µM
SNB-19 CNS
  TGI: > 100 µM
SNB-78 CNS
  TGI: > 100 µM
SR leukemia
  TGI: > 100 µM
SW-620 colon
  TGI: > 100 µM
TK-10 renal
  TGI: > 100 µM
U251 CNS
  TGI: > 100 µM
UACC-62 melanoma
  TGI: > 100 µM
UO-31 renal
  TGI: > 100 µM
XF 498 CNS
  TGI: > 100 µM

## O=C(O)c1ccc([C@@H]2C(=O)N(O)[C@@H]3C=CC[C@@H]32)cc1
786-0 renal
  TGI: > 100 µM
A549 NSCLC
  TGI: > 100 µM
CAKI-1 renal
  TGI: > 100 µM
CCRF-CEM leukemia
  TGI: > 100 µM
COLO 205 colon
  TGI: > 100 µM
DLD-1 colon
  TGI: > 100 µM
DMS 114 small cell lung
  TGI: > 100 µM
DMS 273 small cell lung
  TGI: > 100 µM
EKVX NSCLC
  TGI: > 100 µM
HCC-2998 colon
  TGI: > 100 µM
HCT-15 colon
  TGI: > 100 µM
HL-60(TB) leukemia
  TGI: > 100 µM
HOP-62 NSCLC
  TGI: > 100 µM
HT29 colon
  TGI: > 100 µM
IGROV1 ovarian
  TGI: > 100 µM
K-562 leukemia
  TGI: > 100 µM
KM12 colon
  TGI: > 100 µM
LOX IMVI melanoma
  TGI: > 100 µM
LXFL 529 NSCLC
  TGI: > 100 µM
M14 melanoma
  TGI: > 100 µM
M19-MEL melanoma
  TGI: > 100 µM
MALME-3M melanoma
  TGI: > 100 µM
MOLT-4 leukemia
  TGI: > 100 µM
NCI-H226 lung
  TGI: > 100 µM
NCI-H23 lung
  TGI: > 100 µM
NCI-H522 lung
  TGI: > 100 µM
OVCAR-3 ovarian
  TGI: > 100 µM
OVCAR-8 ovarian
  TGI: > 100 µM
RPMI-8226 leukemia
  TGI: > 100 µM
RXF 393 renal
  TGI: > 100 µM
RXF-631 renal
  TGI: > 100 µM
SF-268 CNS
  TGI: > 100 µM
SF-295 CNS
  TGI: > 100 µM
SF-539 CNS
  TGI: > 100 µM
SK-MEL-2 melanoma
  TGI: > 100 µM
SK-MEL-28 melanoma
  TGI: > 100 µM
SK-MEL-5 melanoma
  TGI: > 100 µM
SK-OV-3 ovarian
  TGI: > 100 µM
SN12C renal
  TGI: > 100 µM
SNB-19 CNS
  TGI: > 100 µM
SNB-75 CNS
  TGI: > 100 µM
SNB-78 CNS
  TGI: > 100 µM
SW-620 colon
  TGI: > 100 µM
TK-10 renal
  TGI: > 100 µM
UACC-257 melanoma
  TGI: > 100 µM
UACC-62 melanoma
  TGI: > 100 µM
UO-31 renal
  TGI: > 100 µM
XF 498 CNS
  TGI: > 100 µM

## CCCCCCCCCCOC(=O)NCCC
786-0 renal
  TGI: > 100 µM
A498 renal
  TGI: > 100 µM
A549 NSCLC
  TGI: > 100 µM
ACHN renal
  TGI: > 100 µM
CAKI-1 renal
  TGI: > 100 µM
CCRF-CEM leukemia
  TGI: 48.4 µM
COLO 205 colon
  TGI: > 100 µM
DLD-1 colon
  TGI: > 100 µM
DMS 273 small cell lung
  TGI: 54.9 µM
EKVX NSCLC
  TGI: 67.7 µM
HCC-2998 colon
  TGI: 76.8 µM
HCT-15 colon
  TGI: 48.4 µM
HL-60(TB) leukemia
  TGI: 32.7 µM
HOP-18 NSCLC
  TGI: > 100 µM
HOP-92 NSCLC
  TGI: 48.1 µM
HT29 colon
  TGI: 49.7 µM
IGROV1 ovarian
  TGI: > 100 µM
K-562 leukemia
  TGI: > 100 µM
KM12 colon
  TGI: > 100 µM
KM20L2 colon
  TGI: 62.2 µM
LOX IMVI melanoma
  TGI: 36.3 µM
LXFL 529 NSCLC
  TGI: > 100 µM
M14 melanoma
  TGI: > 100 µM
M19-MEL melanoma
  TGI: > 100 µM
MALME-3M melanoma
  TGI: 54.8 µM
MOLT-4 leukemia
  TGI: 43.6 µM
NCI-H23 lung
  TGI: > 100 µM
NCI-H460 lung
  TGI: 65.9 µM
NCI-H522 lung
  TGI: 50.4 µM
OVCAR-3 ovarian
  TGI: > 100 µM
OVCAR-4 ovarian
  TGI: > 100 µM
OVCAR-5 ovarian
  TGI: 93.9 µM
OVCAR-8 ovarian
  TGI: > 100 µM
RPMI-8226 leukemia
  TGI: 43.3 µM
RXF 393 renal
  TGI: 39.9 µM
RXF-631 renal
  TGI: > 100 µM
SF-268 CNS
  TGI: > 100 µM
SF-295 CNS
  TGI: > 100 µM
SF-539 CNS
  TGI: > 100 µM
SK-MEL-2 melanoma
  TGI: 41 µM
SK-MEL-28 melanoma
  TGI: > 100 µM
SK-MEL-5 melanoma
  TGI: 52.9 µM
SK-OV-3 ovarian
  TGI: > 100 µM
SN12C renal
  TGI: 86.3 µM
SNB-19 CNS
  TGI: > 100 µM
SNB-75 CNS
  TGI: > 100 µM
SW-620 colon
  TGI: > 100 µM
TK-10 renal
  TGI: > 100 µM
U251 CNS
  TGI: 80.6 µM
UACC-257 melanoma
  TGI: 92.8 µM
UACC-62 melanoma
  TGI: > 100 µM
UO-31 renal
  TGI: 50.6 µM
XF 498 CNS
  TGI: 43.6 µM
